According to the supplement of paper PMC10307832:

These cell lines were tested with CC(C)N(CCCNC(=O)Nc1ccc(C(C)(C)C)cc1)C[C@H]1O[C@@H](n2ccc3c(N)ncnc32)[C@H](O)[C@@H]1O + CS(=O)(=O)N1CCN(Cc2cc3nc(-c4cccc5[nH]ncc45)nc(N4CCOCC4)c3s2)CC1 [Pictilisib] (partner 1 µM) (assay: relative viability (nuclei count vs DMSO), 5 days (fraction); higher = more cells survive). Conditions: first compound 0.08 µM.
Method in brief: (§1)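 Dosing by pin tool came one day after lung cancer cell lines were seeded in 1536-well plates, using either one drug or a fixed anchor-drug dose plus five library-drug doses (not always all listed) in √10 steps. After 5 days, nuclei were counted on 4× images. Relative viability is treated-well nuclei count divided by vehicle-well nuclei count, and values are medians of duplicate plates.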

Row | Cell Line | relative viability
1 | NCI-H1792 | 0.26
2 | NCI-H1355 | 0.376
3 | NCI-H322M | 0.54
4 | NCI-H1437 | 0.362
5 | NCI-H1755 | 0.469
6 | NCI-H2085 | 0.456
7 | HCC-15 | 0.697
8 | NCI-H1793 | 0.296
9 | RERF-LC-KJ | 0.597
10 | EKVX | 0.454
11 | LC-2-ad | 0.612
12 | NCI-H1944 | 0.314
13 | NCI-H1975 | 0.289

Same assay, conditions: first compound 0.253 µM

Row | Cell Line | relative viability
14 | LU99A | 0.287
15 | BEN | 0.497
16 | HARA | 0.479
17 | HCC-78 | 0.196
18 | NCI-H441 | 0.423
19 | A-427 | 0.644
20 | NCI-H460 | 0.391
21 | NCI-H838 | 0.372
22 | NCI-H1734 | 0.531
23 | NCI-H596 | 0.412
24 | NCI-H1395 | 0.55
25 | 201T | 0.624
26 | NCI-H1915 | 0.879
27 | HCC-827 | 1.1
28 | LXF-289 | 0.752
29 | NCI-H2347 | 0.546
30 | NCI-H1651 | 0.567
31 | EPLC-272H | 0.253
32 | NCI-H1792 | 0.245
33 | NCI-H1355 | 0.337
34 | NCI-H322M | 0.478
35 | NCI-H1437 | 0.358
36 | NCI-H1755 | 0.478
37 | NCI-H2085 | 0.405
38 | HCC-15 | 0.695
39 | RERF-LC-KJ | 0.511
40 | EKVX | 0.407
41 | LC-2-ad | 0.518
42 | NCI-H1944 | 0.292
43 | NCI-H1975 | 0.268

Same assay, conditions: first compound 0.8 µM

Row | Cell Line | relative viability
44 | LU99A | 0.411
45 | BEN | 0.586
46 | HARA | 0.344
47 | HCC-78 | 0.263
48 | NCI-H441 | 0.361
49 | LCLC-97TM1 | 0.147
50 | A-427 | 0.812
51 | NCI-H460 | 0.335
52 | NCI-H838 | 0.425
53 | NCI-H1734 | 0.435
54 | NCI-H596 | 0.173
55 | NCI-H2405 | 0.358
56 | 201T | 0.571
57 | NCI-H1915 | 0.868
58 | HCC-827 | 0.886
59 | LXF-289 | 0.788

Row | Cell Line | relative viability
60 | NCI-H2347 | 0.661
61 | NCI-H1651 | 0.498
62 | EPLC-272H | 0.314
63 | NCI-H23 | 0.478
64 | NCI-H1792 | 0.219
65 | NCI-H322M | 0.566
66 | NCI-H1437 | 0.526
67 | NCI-H1755 | 0.357
68 | NCI-H2085 | 0.429
69 | HCC-15 | 0.643
70 | NCI-H1793 | 0.369
71 | RERF-LC-KJ | 0.525
72 | EKVX | 0.446
73 | LC-2-ad | 0.413
74 | NCI-H1944 | 0.285
75 | NCI-H1975 | 0.197

Same assay, conditions: first compound 2.53 µM

Row | Cell Line | relative viability
76 | LU99A | 0.369
77 | BEN | 0.588
78 | HARA | 0.311
79 | HCC-78 | 0.192
80 | NCI-H441 | 0.539
81 | LCLC-97TM1 | 0.202
82 | A-427 | 0.597
83 | NCI-H460 | 0.381
84 | NCI-H838 | 0.473
85 | NCI-H1734 | 0.496
86 | NCI-H596 | 0.355
87 | NCI-H2405 | 0.46
88 | NCI-H1395 | 0.59
89 | 201T | 0.722
90 | NCI-H1915 | 0.912
91 | HCC-827 | 1.07
92 | LXF-289 | 0.852

Row | Cell Line | relative viability
93 | NCI-H2347 | 0.582
94 | NCI-H1651 | 0.565
95 | EPLC-272H | 0.284
96 | NCI-H23 | 0.568
97 | NCI-H1792 | 0.254
98 | NCI-H1355 | 0.518
99 | NCI-H322M | 0.44
100 | NCI-H1437 | 0.428
101 | NCI-H1755 | 0.452
102 | NCI-H2085 | 0.455
103 | HCC-15 | 0.732
104 | NCI-H1793 | 0.281
105 | RERF-LC-KJ | 0.493
106 | EKVX | 0.468
107 | LC-2-ad | 0.511
108 | NCI-H1944 | 0.384
109 | NCI-H1975 | 0.271

Same assay, conditions: first compound 8 µM

Row | Cell Line | relative viability
110 | LU99A | 0.312
111 | BEN | 0.586
112 | HARA | 0.31
113 | HCC-78 | 0.212
114 | NCI-H441 | 0.47
115 | LCLC-97TM1 | 0.178
116 | A-427 | 0.77
117 | NCI-H460 | 0.38
118 | NCI-H838 | 0.494
119 | NCI-H1734 | 0.413
120 | NCI-H596 | 0.414
121 | NCI-H2405 | 0.429
122 | NCI-H1395 | 0.738
123 | 201T | 0.733
124 | NCI-H1915 | 0.808
125 | HCC-827 | 0.9
126 | LXF-289 | 0.738

Row | Cell Line | relative viability
127 | NCI-H2347 | 0.842
128 | NCI-H1651 | 0.6
129 | EPLC-272H | 0.322
130 | NCI-H23 | 0.454
131 | NCI-H1792 | 0.267
132 | NCI-H1355 | 0.404
133 | NCI-H322M | 0.57
134 | NCI-H1437 | 0.441
135 | NCI-H1755 | 0.394
136 | NCI-H2085 | 0.568
137 | HCC-15 | 0.701
138 | NCI-H1793 | 0.35
139 | RERF-LC-KJ | 0.501
140 | EKVX | 0.423
141 | LC-2-ad | 0.427
142 | NCI-H1944 | 0.366
143 | NCI-H1975 | 0.289

Each cell line was assayed with CC(C)N(CCCNC(=O)Nc1ccc(C(C)(C)C)cc1)C[C@H]1O[C@@H](n2ccc3c(N)ncnc32)[C@H](O)[C@@H]1O + NC(=O)Nc1cc(-c2cccc(F)c2)sc1C(=O)N[C@H]1CCCNC1 [AZD7762] (partner 0.2 µM) in the same assay as above. Conditions: first compound 0.08 µM.
Method in brief: as §1

Row | Cell Line | relative viability
144 | LU99A | 0.416
145 | BEN | 0.736
146 | HARA | 0.344
147 | HCC-78 | 0.613
148 | NCI-H441 | 1.04
149 | LCLC-97TM1 | 0.233
150 | A-427 | 0.79
151 | NCI-H460 | 0.725
152 | NCI-H838 | 0.864
153 | NCI-H1734 | 0.546
154 | NCI-H596 | 1.09
155 | NCI-H2405 | 0.742
156 | NCI-H1395 | 0.424
157 | 201T | 0.6
